EP0966963A1, “Use of indigoid bisindole derivatives as CDK1 inhibitors” (Eisenbrand, Gerhard, Prof. Dr., priority 1998, dated 1999)

Key:
[1] = system: PKA; details: known chemical inhibitors, Meijer 1996; cited from earlier work
[2] = biological target: CDK4 (Homo sapiens, UniProt P11802); details: known chemical inhibitors, Meijer 1996; cited from earlier work
[3] = biological target: cAMP-dependent protein kinase; assay: PKA inhibition (specificity panel); format: biochemical
[4] = biological target: p34^cdc2/cyclin B; assay: p34cdc2/cyclin B kinase assay (histone H1 phosphorylation, [32P]ATP); format: biochemical, starfish (Marthasterias glacialis); details: 1 mg histone H1/ml, 15 µM ATP, 10 min at 30°C
Experimental: J. Biochem., 243, (1997), 527-536). […] After 10 min. incubation at 30°C, 25 μl aliquots of supernatant were spotted onto 2.5 x 3 cm pieces of Whatman P81 phosphocellulose paper, and after 20 sec., the filters were washed five times (for at least 5 min. each time) in a solution of 10 ml phosphoric acid/liter of water. The wet filters were transferred into 6 ml plastic scintillation vials, 5 ml ACS (Amersham) scintillation fluid was added and the radioactivity measured in a Packard scintillation counter.

[5] = system: cdc25; assay: cdc25 inhibition (specificity panel); format: biochemical
[6] = biological target: Ca^2+- dependent protein kinase; assay: PKC inhibition (specificity panel); format: biochemical

Chain of CDK4 (P11802 whole entry, species assumed): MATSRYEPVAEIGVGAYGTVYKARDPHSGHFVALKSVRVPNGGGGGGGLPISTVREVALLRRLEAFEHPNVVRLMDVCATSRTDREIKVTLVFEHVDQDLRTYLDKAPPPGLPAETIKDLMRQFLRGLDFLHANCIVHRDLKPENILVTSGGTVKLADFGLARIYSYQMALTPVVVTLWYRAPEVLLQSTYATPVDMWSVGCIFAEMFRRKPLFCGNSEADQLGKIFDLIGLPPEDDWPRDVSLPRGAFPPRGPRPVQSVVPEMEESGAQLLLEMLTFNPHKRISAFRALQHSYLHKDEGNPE
Chain of CDK4 (P24385 whole entry partner, species assumed): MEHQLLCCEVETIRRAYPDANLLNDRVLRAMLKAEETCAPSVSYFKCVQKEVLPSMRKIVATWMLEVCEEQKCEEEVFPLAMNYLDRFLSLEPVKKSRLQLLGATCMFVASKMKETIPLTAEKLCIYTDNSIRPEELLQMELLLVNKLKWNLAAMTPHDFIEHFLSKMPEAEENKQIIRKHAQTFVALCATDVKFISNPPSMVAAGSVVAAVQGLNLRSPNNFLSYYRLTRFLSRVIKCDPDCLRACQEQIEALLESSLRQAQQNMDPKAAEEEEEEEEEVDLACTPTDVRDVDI

COC(=O)[C@@]1(Cc2ccc(O)c(CC=C(C)C)c2)OC(=O)C(O)=C1c1ccc(O)cc1 [Butyrolactone-l]
IC50 [1]: 260 µM
IC50 CDK4 [2]: no effect

O=C1Nc2ccccc2C1=C1Nc2ccccc2C1=O [Example 1, Indirubine]
IC50 PKA [3]: no Effect
IC50 [4]: 2 µM
IC50 [5]: 150 µM
IC50 PKC [6]: no Effect

O=C1Nc2ccc(I)cc2C1=C1Nc2ccccc2C1=O [Example 2, 5-Iodoindirubine]
IC50 PKA [3]: no Effect
IC50 PKC [6]: no Effect

O=C1Nc2ccccc2C1=C1Nc2ccccc2C1=NO [Example 10, Indirubine-3'-oxime]
IC50 [4]: 0.18 µM

CN1CC[C@H](c2c(O)cc(O)c3c(=O)cc(-c4ccccc4Cl)oc23)[C@H](O)C1 [Flavopiridol]
IC50 [1]: 145 µM
